From patent publication US10052330B2, “Substituted pyrido[3,4-b]pyrazines as Syk inhibitors” (HUTCHISON MEDIPHARMA LIMITED, priority 2011, dated 2018) come the findings set out here.

Molecules are shown by their SMILES. Read-outs that look alike come from different tables or passages of the source.

In one test the target is Syk kinase (Homo sapiens, UniProt P43405). Put plainly: Syk kinase enzymatic assay (Kit-Tyr 2 Peptide). To be noted: 8 concentrations, 1 μM down to 0.0003 μM; upper bound of each range is 'less than'; read-out: IC50: Enzymatic Activity (Syk kinase). Type of test: biochemical.
The subject of a further test is RBL-2H3 cells. The experiment in a line: IgE-induced Beta-hexosaminidase secretion in RBL-2H3 cells. To be noted: Rattus norvegicus, upper bound of each range is 'less than', read-out: IC50, IgE-induced Beta-hexosaminidase secretion. Type of test: cell-based.
[1] abbreviates: RBL-2H3, RBL-2H3 cells sensitized with SPE-7, stimulated with DNP-BSA.

One may read the IC50 as the point on the concentration scale where inhibition reaches its midpoint. For `CNc1ccc(-c2cc3nccnc3c(NCC3CNCCC3(F)F)n2)cc1` (stereo not shown) [Compound 291], the IC50 on Syk kinase and with RBL-2H3 cells (setting [1]) was 1 to 100 nM each time.

In the case of `CC(F)C(=O)N1CCN(c2ccc(-c3cc4nccnc4c(NC[C@@H]4CNCCO4)n3)cc2)CC1` (stereo partly shown) [Compound 433], the IC50 at Syk kinase and in the test with RBL-2H3 cells (setting [1]) was 1 to 100 nM in each case.

As for `NS(=O)(=O)CCNc1nc(-c2ccc(N3CCOCC3)cc2)cc2nccnc12` [Compound 167], the IC50 on Syk kinase and with RBL-2H3 cells (setting [1]) was 100 to 1000 nM in each case.

Turning to `CC(C)Oc1ccc(-c2cc3nccnc3c(NC[C@@H]3CCCNC3)n2)cc1F` [Compound 88], the IC50 at Syk kinase and with RBL-2H3 cells (setting [1]) was 100 to 1000 nM in each case.

With `CN1CCN(c2ccc(-c3cc4nccnc4c(NCC4CNCCS4)n3)cc2)CC1` (stereo not shown) [Compound 241], the IC50 at Syk kinase fell in the range of 1 to 100 nM; in the test on RBL-2H3 cells (setting [1]) it was 100 to 1000 nM.

Consider `CCCC(=O)N1CCN(c2ccc(-c3cc4nccnc4c(NC[C@@H]4CNCCO4)n3)cc2)CC1` [Compound 426], for which the IC50 at Syk kinase and in the test with RBL-2H3 cells (setting [1]) was 1 to 100 nM each time.

For the compound `F[C@@]1(CNc2nc(-c3ccc(N4CCOCC4)cc3)cc3nccnc23)CCCNC1` [Compound 376, (S)—N-((3-fluoropiperidin-3-yl)methyl)-7-(4-morpholinophenyl)pyrido[4,3-b]pyrazin-5-amine], the IC50 on Syk kinase and in the test on RBL-2H3 cells (setting [1]) was 1 to 100 nM throughout.

Take `CC(C)(O)CN1CCN(c2ccc(-c3cc4nccnc4c(NCC4CNCCO4)n3)cc2)CC1` (stereo not shown) [Compound 217]: the IC50 on Syk kinase and with RBL-2H3 cells (setting [1]) was 1 to 100 nM each time.

For `CCS(=O)(=O)N1CCC(c2ccc(-c3cc4nccnc4c(NC[C@@H]4CNCCO4)n3)cc2)CC1` [Compound 446], the IC50 on Syk kinase and with RBL-2H3 cells (setting [1]) was 1 to 100 nM each time.

As to `CC(C)(O)C1CCN(c2ccc(-c3cc4nccnc4c(NC[C@@H]4CNCCO4)n3)cc2)CC1` [Compound 275], the IC50 on Syk kinase and in the test on RBL-2H3 cells (setting [1]) was 1 to 100 nM throughout.

In the case of `CS(=O)(=O)N1CCN(c2ccc(-c3cc4nccnc4c(NC[C@@H]4CNCCO4)n3)cn2)CC1` [Compound 440], the IC50 at Syk kinase was in the range of 1 to 100 nM; in the test on RBL-2H3 cells (setting [1]) it was 100 to 1000 nM.

As to `CN(C)c1ccc(-c2cc3nccnc3c(NCCS(N)(=O)=O)n2)cc1` [Compound 166], the IC50 on Syk kinase and with RBL-2H3 cells (setting [1]) was 100 to 1000 nM in each case.

With `COc1ccc(-c2cc3nccnc3c(NCC3CNCCC3(F)F)n2)cc1Cl` (stereo not shown) [Compound 298], the IC50 at Syk kinase and with RBL-2H3 cells (setting [1]) was 1 to 100 nM in each case.

On to `N#CCC(=O)N1CCO[C@H](CNc2nc(-c3ccc(N4CCOCC4)cc3)cc3nccnc23)C1` [Compound 324], for which the IC50 on Syk kinase and in the test with RBL-2H3 cells (setting [1]) was 1 to 100 nM in each case.

Regarding `CS(=O)(=O)N1CCCN(c2ccc(-c3cc4nccnc4c(NC[C@@H]4CNCCO4)n3)cc2)CC1` [Compound 502], the IC50 was 1 to 100 nM at Syk kinase and 100 to 1000 nM in the test on RBL-2H3 cells (setting [1]).

`Fc1cc(-c2cc3nccnc3c(NC[C@@H]3CNCCO3)n2)cc(F)c1N1CCOCC1` [Compound 135]: the IC50 on Syk kinase and with RBL-2H3 cells (setting [1]) was 100 to 1000 nM in each case.

Take `CC(=O)N1CCN(c2ccc(-c3cc4nccnc4c(NC[C@H]4CN(C(=O)C(F)F)CCO4)n3)cc2)CC1` [Compound 466, (S)-1-(2-((7-(4-phenylpiperazin-1-yl)ethanone[4,3-b]pyrazin-5-ylamino)methyl)morpholino)-2,2-difluoroethanone]: the concentration for half-maximal inhibition (IC50) fell in the range of 1 to 100 nM on Syk kinase and 1 to 100 nM in the test on RBL-2H3 cells (RBL-2H3 cells sensitized with SPE-7, stimulated with DNP-BSA).

As for `CN1CCN(c2ccc(-c3cc4nccnc4c(NC[C@@H]4CN(C(=O)C(F)F)CCO4)n3)cc2)CC1` [Compound 449, (R)-2,2-difluoro-1-(2-((7-(4-(4-methylpiperazin-1-yl)phenyl)pyrido[4,3-b]pyrazin-5-ylamino)methyl)morpholino)ethanone], the IC50 on Syk kinase and in the test with RBL-2H3 cells (setting [1]) was 1 to 100 nM throughout.

In the case of `c1cnc2c(N3CCC4(CCCNC4)C3)nc(-c3ccc(N4CCCC4)cc3)cc2n1` (stereo not shown) [Compound 112], the results for the concentration for half-maximal inhibition (IC50) on Syk kinase and in the test on RBL-2H3 cells (setting [1]) were 1 to 100 nM and 100 to 1000 nM, respectively.

As to `CC(C)S(=O)(=O)N1CCN(c2ccc(-c3cc4nccnc4c(NC[C@@H]4CNCCO4)n3)cc2)CC1` [Compound 401], the IC50 at Syk kinase lay within 1 to 100 nM; in the test on RBL-2H3 cells (setting [1]) it was 100 to 1000 nM.

In the case of `NCC1CCN(c2nc(-c3ccc(N4CCOCC4)cc3)cc3nccnc23)CC1` [Compound 108], the IC50 on Syk kinase and with RBL-2H3 cells (setting [1]) was 100 to 1000 nM each time.

`FC1(F)CCNC[C@@H]1CNc1nc(-c2cnn(C3CCOCC3)c2)cc2nccnc12` [Compound 399, (R)—N-((4,4-difluoropiperidin-3-yl)methyl)-7-(1-(tetrahydro-2H-pyran-4-yl)-1H-pyrazol-4-yl)pyrido[4,3-b]pyrazin-5-amine]: the IC50 at Syk kinase and with RBL-2H3 cells (setting [1]) was 1 to 100 nM in each case.

With `F[C@H]1CCN(c2ccc(-c3cc4nccnc4c(NCC4CNCCO4)n3)cc2)C1` (stereo partly shown) [Compound 231], the IC50 at Syk kinase and with RBL-2H3 cells (setting [1]) was 1 to 100 nM each time.

Consider `CC(=O)N1CCN(c2ccc(-c3cc4nccnc4c(NC[C@@H]4CNCCC4(F)F)n3)cc2)CC1` [Compound 384, (S)-1-(4-(4-(5-((4,4-difluoropiperidin-3-yl)methylamino)pyrido[4,3-b]pyrazin-7-yl)phenyl)piperazin-1-yl)ethanone], for which the IC50 at Syk kinase and with RBL-2H3 cells (setting [1]) was 1 to 100 nM each time.

In the case of `O=C(CCO)N1CCC(c2ccc(-c3cc4nccnc4c(NC[C@@H]4CNCCO4)n3)cc2)CC1` [Compound 512], the figures for the IC50 on Syk kinase and in the test with RBL-2H3 cells (setting [1]) were 1 to 100 nM and 100 to 1000 nM, respectively.

For `O=C(C(F)F)N1CCO[C@H](CNc2nc(-c3ccc(N4CCN(CCO)CC4)cc3)cc3nccnc23)C1` [Compound 489], the IC50 at Syk kinase and with RBL-2H3 cells (setting [1]) was 1 to 100 nM throughout.

With `CN(C)c1ccc(-c2cc3nccnc3c(NCCC(N)=O)n2)cc1` [Compound 175, 3-(7-(4-(dimethylamino)phenyl)pyrido[4,3-b]pyrazin-5-ylamino)propanamide], the IC50 at Syk kinase and in the test with RBL-2H3 cells (setting [1]) was 100 to 1000 nM each time.

On to `CN(C)c1ccc(-c2cc3nccnc3c(NC[C@@H]3CNCCO3)n2)cn1` [Compound 102], for which the IC50 at Syk kinase and in the test on RBL-2H3 cells (setting [1]) was 1 to 100 nM each time.

For the compound `CN(C)C(=O)C1CCN(c2ccc(-c3cc4nccnc4c(NC[C@@H]4CNCCO4)n3)cc2)CC1` [Compound 270], the IC50 at Syk kinase was 1 to 100 nM; in the test with RBL-2H3 cells (setting [1]) it was 100 to 1000 nM.

For `CC(C)Oc1ccc(-c2cc3nccnc3c(NC[C@@H]3CNCCO3)n2)cc1F` [Compound 100], the IC50 at Syk kinase and in the test on RBL-2H3 cells (setting [1]) was 100 to 1000 nM in each case.

For `CN1CCN(c2ccc(-c3cc4nccnc4c(N4CC[C@@H](CO)C4)n3)cc2)CC1` [Compound 127], the IC50 was 1 to 100 nM at Syk kinase and 100 to 1000 nM in the test with RBL-2H3 cells (setting [1]).

`CS(=O)(=O)N1CCN(c2ccc(-c3cc4nccnc4c(NC[C@@H]4CN(C(=O)C(F)F)CCO4)n3)cc2)CC1` [Compound 467]: the IC50 at Syk kinase and in the test on RBL-2H3 cells (setting [1]) was 1 to 100 nM throughout.

Regarding `CN(c1ccc(-c2cc3nccnc3c(NC[C@H]3CNCCC3(F)F)n2)cc1)S(C)(=O)=O` [Compound 395, (R)—N-(4-(5-((4,4-difluoropiperidin-3-yl)methylamino)pyrido[4,3-b]pyrazin-7-yl)phenyl)-N-methylmethanesulfonamide], the figures for the IC50 at Syk kinase and in the test with RBL-2H3 cells (setting [1]) were 100 to 1000 nM and 1 to 100 nM, respectively.

As for `c1cnc2c(NCC3CCNCC3)nc(-c3ccc(N4CCOCC4)cc3)cc2n1` [Compound 37], the IC50 on Syk kinase and in the test with RBL-2H3 cells (setting [1]) was 100 to 1000 nM in each case.

Take `C[C@H]1CN(c2ccc(-c3cc4nccnc4c(NC[C@@H]4CNCCO4)n3)cc2F)CCO1` [Compound 386, 7-(3-fluoro-4-((S)-2-methylmorpholino)phenyl)-N—((S)-morpholin-2-ylmethyl)pyrido[4,3-b]pyrazin-5-amine]: the values for the IC50 on Syk kinase and in the test on RBL-2H3 cells (setting [1]) were 1 to 100 nM and 100 to 1000 nM, respectively.

Regarding `CC(=O)N1CCC(c2ccc(-c3cc4nccnc4c(NC[C@@H]4CN(C(=O)C(F)F)CCO4)n3)cc2)CC1` [Compound 470], the IC50 at Syk kinase and in the test on RBL-2H3 cells (setting [1]) was 1 to 100 nM throughout.

Consider `CN(C)c1ccc(-c2cc3nccnc3c(NC[C@@H]3CNCCO3)n2)cc1F` [Compound 141], for which the concentration for half-maximal inhibition (IC50) at Syk kinase and in the test on RBL-2H3 cells (setting [1]) was 1 to 100 nM throughout.

Take `O=C(C(F)F)N1CCN(c2ccc(-c3cc4nccnc4c(NC[C@@H]4CNCCO4)n3)cc2F)CC1` [Compound 427]: the IC50 on Syk kinase and in the test on RBL-2H3 cells (setting [1]) was 1 to 100 nM throughout.

Take `Nc1ccc(-c2cc3nccnc3c(NC[C@@H]3CCCNC3)n2)cc1Cl` [Compound 75]: the IC50 at Syk kinase and in the test with RBL-2H3 cells (setting [1]) was 100 to 1000 nM in each case.

On to `Cc1cc(-c2cc3nccnc3c(NC[C@@H]3CN(C(=O)C(F)F)CCO3)n2)ccc1N1CCOCC1` [Compound 450], for which the IC50 at Syk kinase and with RBL-2H3 cells (setting [1]) was 1 to 100 nM throughout.

Regarding `CCN1CCN(c2ccc(-c3cc4nccnc4c(NC[C@@H]4CN(C(=O)C(F)F)CCO4)n3)cc2)CC1` [Compound 488], the IC50 on Syk kinase and in the test with RBL-2H3 cells (setting [1]) was 1 to 100 nM each time.

In the case of `c1cnc2c(NCC3CNCCCO3)nc(-c3ccc(N4CCOCC4)cc3)cc2n1` (stereo not shown) [Compound 220], the IC50 at Syk kinase and with RBL-2H3 cells (setting [1]) was 100 to 1000 nM each time.

As to `CN(c1ccc(-c2cc3nccnc3c(NCC3CNCCC3(F)F)n2)cc1)S(C)(=O)=O` (stereo not shown) [Compound 313], the 50% inhibitory concentration (IC50) on Syk kinase and in the test on RBL-2H3 cells (setting [1]) was 1 to 100 nM throughout.

On to `O=C(C1CCCC1)N1CCN(c2ccc(-c3cc4nccnc4c(NC[C@@H]4CNCCO4)n3)cc2)CC1` [Compound 414], for which the IC50 on Syk kinase and with RBL-2H3 cells (setting [1]) was 1 to 100 nM each time.

Regarding `c1cnc2c(N[C@@H]3CCNC3)nc(-c3ccc(N4CCOCC4)cc3)cc2n1` [Compound 39], the IC50 at Syk kinase and in the test on RBL-2H3 cells (setting [1]) was 100 to 1000 nM each time.

Take `Cn1ccc2cc(-c3cc4nccnc4c(NC[C@@H]4CNCCO4)n3)ccc21` [Compound 235]: the 50% inhibitory concentration (IC50) on Syk kinase and with RBL-2H3 cells (setting [1]) was 1 to 100 nM in each case.

As for `Cn1ccc2cc(-c3cc4nccnc4c(NC[C@@H]4CNCCO4)n3)cnc21` [Compound 234], the IC50 on Syk kinase and in the test on RBL-2H3 cells (setting [1]) was 100 to 1000 nM in each case.
